Test results taken from patent US20260376293A1, “METHODS FOR STUDYING GPR158 PHARMACOLOGY AND IDENTIFICATION OF ITS LIGANDS” (UNIVERSITY OF FLORIDA RESEARCH FOUNDATION, INCORPORATED, priority 2022, published 2026).

Target: T1, GPR158 (Homo sapiens, UniProt Q5T848)
T1 sequence (Q5T848 24-1215): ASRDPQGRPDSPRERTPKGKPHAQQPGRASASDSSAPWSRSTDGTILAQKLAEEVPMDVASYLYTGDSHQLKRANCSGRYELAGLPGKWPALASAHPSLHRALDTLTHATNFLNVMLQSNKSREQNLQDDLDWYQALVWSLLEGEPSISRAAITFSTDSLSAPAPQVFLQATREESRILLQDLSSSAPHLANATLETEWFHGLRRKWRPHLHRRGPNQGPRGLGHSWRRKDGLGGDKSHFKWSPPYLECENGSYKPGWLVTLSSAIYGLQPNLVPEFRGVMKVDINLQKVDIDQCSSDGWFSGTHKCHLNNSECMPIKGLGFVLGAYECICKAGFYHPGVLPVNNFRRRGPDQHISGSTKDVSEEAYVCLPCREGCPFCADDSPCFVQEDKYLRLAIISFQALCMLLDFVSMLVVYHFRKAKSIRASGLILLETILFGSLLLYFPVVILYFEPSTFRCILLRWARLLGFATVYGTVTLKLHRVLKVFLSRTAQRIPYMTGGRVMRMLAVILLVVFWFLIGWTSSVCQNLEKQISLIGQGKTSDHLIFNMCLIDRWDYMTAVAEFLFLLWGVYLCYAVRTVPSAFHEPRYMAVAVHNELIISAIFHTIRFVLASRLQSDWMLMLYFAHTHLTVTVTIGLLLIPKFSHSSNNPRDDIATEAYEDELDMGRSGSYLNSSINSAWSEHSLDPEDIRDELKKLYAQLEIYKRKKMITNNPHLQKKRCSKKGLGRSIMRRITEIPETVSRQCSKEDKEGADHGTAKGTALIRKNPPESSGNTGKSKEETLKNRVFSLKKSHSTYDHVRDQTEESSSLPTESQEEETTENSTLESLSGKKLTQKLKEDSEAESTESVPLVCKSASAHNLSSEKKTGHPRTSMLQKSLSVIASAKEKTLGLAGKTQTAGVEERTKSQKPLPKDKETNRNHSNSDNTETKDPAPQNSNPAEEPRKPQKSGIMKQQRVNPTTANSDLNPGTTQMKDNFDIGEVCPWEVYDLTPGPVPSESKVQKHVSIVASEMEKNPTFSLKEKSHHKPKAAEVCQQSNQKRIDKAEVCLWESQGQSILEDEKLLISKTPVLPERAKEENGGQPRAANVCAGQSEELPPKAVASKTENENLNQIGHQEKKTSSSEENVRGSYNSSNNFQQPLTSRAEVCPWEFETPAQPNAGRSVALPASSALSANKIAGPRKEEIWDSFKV
Test: BRET cAMP assay in HEK293 cells expressing GPR158
Type: cell-based
Parameters: expressed in transfected cells; host or cells: HEK293FT
Method: FIGS. 2A-2C. Taurine signals through GPR158 to regulate cAMP. A) Time course of taurine (100 μM) effect on cAMP concentration in HEK293 cells. Cells were transfected with indicated constructs and cAMP was measured by the BRET assay. B) Quantification of taurine effect on maximal amplitude of the cAMP response. Data shown represent mean±s.e.m. determined from 3-9 independent experiments performed in triplicate. ****p<0.001 (one-way ANOVA). Columns with no fill (Ctrl), columns with angled-line fill (Taurine) C) Comparison of glycine and taurine effects on GPR158-mediated changes in cAMP response. Glycine or taurine was applied to HEK293 cells expressing either GPR158 alone or with RGS7/Gβ5 and the CAMP change was subtracted from the background response in control cells not expressing GPR158. Data shown represent mean±s.e.m. determined from 3 independent experiments performed in triplicate. *p<0.05, ***p<0.01, ns=p>0.05 (one-way ANOVA) Columns with no fill (Ctrl), columns with short-line fill (Glycine), columns with angled-line fill (Taurine).
HEK293FT cells were seeded in a white flat-bottom 96 well plate (Greiner Bio-One) at 50,000 cells per well and transiently transfected using Metafectene Pro with the manufacturer instruction. 24 h after transfection in DMEM complete medium supplemented of 0.1% of Matrigel (Corning), cells were washed with BRET buffer (Dulbecco's Phosphate-Buffered Saline (PBS) containing 0.5 mM MgCl2 and 0.1% glucose). The RLuc (Renilla luciferase) substrate, coelenterazine H (Research Products International Corp, IL), were diluted at 5 μM in BRET buffer and added to cells. BRET measurements were made in living cells using a microplate reader (PHERAstar FSX; BMG Labtech) equipped with two emission photomultiplier tubes. All measurements were performed at 37 °C.
HEK293FT cells or U87 MG cells (ATCC HTB-14) when indicated were co-transfected with the CAMP sensor Camyel and with untagged receptors (respectively: empty vector, GPR158). BRET ratio was determined by calculating the ratio of the light emitted by RLuc (475 nm with a 30 nm band path width) over the light emitted by the Venus (535 nm with a 30 nm band path width) in order to measure an increase of the signal when cAMP increase. ΔBRET was calculated by subtracting the ctrl cell BRET result from GPR158 expressing cells BRET result in order to get specifically the signal from GPR158 removing all the non-specific signal. Finally, netBRET was calculated by subtraction of the baseline value (basal BRET ratio) recorded prior to glycine stimulation from the experimental BRET signal values and the resulting difference (netBRET ratio).

NCCS(=O)(=O)O [taurine, 2-aminoethanesulfonic acid]
type of agonism on GPR158: partial agonist
cAMP change (HEK293 cells expressing GPR158, taurine 100 μM): significant decrease in cAMP levels
cAMP change in parental cells (HEK293 cells without GPR158, taurine 100 μM): did not produce a response
cAMP change with co-expressed RGS7/Gβ5 (HEK293 cells, GPR158 + RGS7/Gβ5, taurine 100 μM): potentiated by co-expressing RGS7/Gβ5
GPR158-mediated suppression of cAMP compared with glycine (HEK293 cells, direct comparison): weaker than the effect of glycine
